Source: publication PMC9220178, “Preclinical Characterization of Antioxidant Quinolyl Nitrone QN23 as a New Candidate for the Treatment of Ischemic Stroke” (Antioxidants, 2022)

Experiments:
Type in all cases: in vivo, rat
[1] = tested on: adult male Wistar rats, four-vessel occlusion (4VO) transient forebrain ischemia; test: Neuronal death by Fluoro-Jade B staining after transient global cerebral ischemia (4VO); details: 40 mg/kg i.v. at 0, 1, 3 or 6 h of reperfusion; R5d
Method: (§1) Transient forebrain ischemia was induced in adult male Wistar rats (10–12 weeks, Charles River, L’Arbresle, France) by the standard four-vessel occlusion (4VO) model previously described. Briefly, animals were anesthetized by intraperitoneal injection of a combination of ketamine, diazepam, and atropine (62.5, 5.0, and 0.25 mg/kg, respectively); positioned in a stereotactic device; and both vertebral arteries were cauterized. The next day, anesthesia was induced with 4% isoflurane and maintained at 2–2.5% isoflurane for carotid artery dissection. After anesthesia withdrawal, the carotid arteries were occluded with an atraumatic vascular clamp to induce brain ischemia. During the entire surgical procedure, temperature was monitored at 2 min intervals and kept at 37 °C. After 15 min of ischemia, the carotid arteries were unclamped for brain reperfusion. The animals were studied after 5 days of reperfusion (R5d), or after 11 weeks of reperfusion (long-term studies), and then they were euthanized under deep anesthesia. Animals from the sham control group were handled in the same way, but without occlusion of the carotid arteries. Ischemic animals were treated with vehicle solution (ethanol/polyethylene glycol 400/saline, 1:300:200 v/v), or with nitrones QN23 or NXY-059 in vehicle solution, as a single injection through the tail vein at the onset of reperfusion. For the therapeutic window experiments, the animals were also treated at reperfusion times 1, 3, and 6 h after ischemia. The treatments were prepared by an independent researcher and administered with concealed allocation. Treatments were administered in a randomized order obtained by a computer-based randomization program. To determine the sample size, a power analysis (http://www.biomath.info/power/ttest.htm, accessed on 12 March 2020) with significance level set at 0.05 and statistical power set at 0.8 (80%) rendered a sample size of <6 subjects per group. A total of 120 ischemic animals (30 animals treated with vehicle, 60 treated with QN23, and 30 treated with NXY-059) and 9 sham control animals were included in these studies. Additionally, 13 animals were excluded from the study: 6 animals were not ischemic and 7 animals died within the 24 h after the surgical procedure (5 vehicles, 1 QN23-treated at 1.0 mg/kg, and 1 QN23-treated at 2.0 mg/kg). The Animal Care Ethics Committee of the Hospital Universitario Ramón y Cajal (Madrid, Spain) authorized all the procedures involving the animal experimentation reported here (authorization number 04/2020). These experiments were performed according to ARRIVE guidelines and the legislation on the protection of animals used for scientific purposes in Spain (RD 53/2013) and the EU (Directive 2010/63/EU). The study was designed and conducted according to the STAIR guidelines regarding physiological monitoring, sample randomization, predefined exclusion criteria, allocation concealment, blinded assessment of outcomes, dose–response definition, and a conflict-of-interest statement.
(§2) After 5 days of reperfusion (R5d), or at 11 weeks of reperfusion in long-term studies, animals were euthanized by transcardiac perfusion via the left ventricle under deep anesthesia. First, blood was washed out with 200 mL of ice-cold saline medium, followed by fixation with 4% (w/v) paraformaldehyde solution in PBS for brain preservation. Then, the brains were carefully removed from the cranial cavity and placed in 4% (w/v) paraformaldehyde solution in PBS overnight at 4 °C. The next day, the brains were sequentially placed in 10%, 20%, and 30% (w/v) sucrose in PBS until sunken, and finally embedded in Tissue-Tek O.C.T. (Sakura Finetek, Torrance, CA, USA) before freezing at −80 °C. Brain coronal sections containing the hippocampus region were obtained by cryostat sectioning at the level of interaural line +5.7 ± 0.2 mm on Real Capillary Gap microscope slides (Agilent Dako, Santa Clara, CA, USA). […]

[2] = tested on: adult male Wistar rats, four-vessel occlusion (4VO) transient forebrain ischemia; test: Neuronal apoptosis by TUNEL assay after transient global cerebral ischemia (4VO); details: 40 mg/kg i.v. at 0, 1, 3 or 6 h of reperfusion; R5d
Method: as §1, §2

[3] = tested on: adult male Wistar rats, four-vessel occlusion (4VO) transient forebrain ischemia; test: Neurological deficit score (NDS) after global cerebral ischemia (4VO); details: 40 mg/kg i.v.; R5d; times tested 0, 1, 3, 6 h
Method: Transient forebrain ischemia was induced in adult male Wistar rats (10–12 weeks, Charles River, L’Arbresle, France) by the standard four-vessel occlusion (4VO) model previously described. Briefly, animals were anesthetized by intraperitoneal injection of a combination of ketamine, diazepam, and atropine (62.5, 5.0, and 0.25 mg/kg, respectively); positioned in a stereotactic device; and both vertebral arteries were cauterized. The next day, anesthesia was induced with 4% isoflurane and maintained at 2–2.5% isoflurane for carotid artery dissection. After anesthesia withdrawal, the carotid arteries were occluded with an atraumatic vascular clamp to induce brain ischemia. During the entire surgical procedure, temperature was monitored at 2 min intervals and kept at 37 °C. After 15 min of ischemia, the carotid arteries were unclamped for brain reperfusion. The animals were studied after 5 days of reperfusion (R5d), or after 11 weeks of reperfusion (long-term studies), and then they were euthanized under deep anesthesia. Animals from the sham control group were handled in the same way, but without occlusion of the carotid arteries. Ischemic animals were treated with vehicle solution (ethanol/polyethylene glycol 400/saline, 1:300:200 v/v), or with nitrones QN23 or NXY-059 in vehicle solution, as a single injection through the tail vein at the onset of reperfusion. For the therapeutic window experiments, the animals were also treated at reperfusion times 1, 3, and 6 h after ischemia. The treatments were prepared by an independent researcher and administered with concealed allocation. Treatments were administered in a randomized order obtained by a computer-based randomization program. […]
After 5 days of post-ischemic reperfusion (R5d), neurological deficits were evaluated in the animals by a researcher blind to the treatment allocation. General status and mobility impairments were quantified according to a scale previously validated in an entire cohort of R5d animals (n = 20). […]

[4] = tested on: adult male Wistar rats, four-vessel occlusion (4VO) transient forebrain ischemia; test: Long-term behavioral tests in the Y maze; details: 40 mg/kg i.v. at reperfusion onset, 11 weeks after ischemia
Method: Long-term assessment of neurological damage after the ischemic episode was performed by the evaluation of the spontaneous exploratory activity (spatial recognition) and spatial memory skills in the Y maze.
For the assessment of the exploratory activity and spatial recognition, control animals and ischemic animals treated with vehicle, QN23, or NXY-059 were placed in the center of the maze and allowed free exploration for 8 min. An independent researcher blind to the treatment allocation registered the total number of arms that the animal entered indistinctly (arm entries), and the times that the animal explored the three different arms of the maze consecutively (alternations or triads).
For the assessment of spatial memory, experiments consisted of two trials. For the first trial (training), control and ischemic animals treated with vehicle or QN23 were placed into one of the arms (start arm) and allowed to explore the Y maze for 10 min with one of the arms closed. One hour after the training trial, the animals were returned to the Y maze and the second trial was conducted. The animals were placed in the same start arm as in the training trial, but now with the remaining two arms of the maze available for exploration for 3 min. A researcher blind to the treatment allocation registered the first choice of arm for entry (novel or old).

With `CC(C)(C)[N+]([O-])=Cc1ccc(S(=O)(=O)[O-])cc1S(=O)(=O)[O-].[Na+].[Na+]` [NXY-059, reference compound] as the molecule, how does the “Neuronal death compared with vehicle” value [1] read?
Its value is “did not reduce neuronal death”.

What about the “Apoptosis reduction compared with vehicle” value [2] of the same molecule?
Its value is “did not produce a significant effect”.

What about the “Therapeutic window: administration time after reperfusion onset with significantly reduced NDS” value [3] of the same molecule?
Its value is 0 h.

And the “Y maze arm entries (exploratory activity)” value [4]?
Its value is “fewer arm maze entries”.

What about the “Y maze alternations (triads completed), spatial recognition” value ([4]; vehicle 5.0, control 15.75) of the same molecule?
Its value is 5.5.

And the “Percentage of animals exploring the novel arm as a first choice (spatial memory)” value ([4]; vehicle 17%, control 75%)?
Its value is 50%.
